Results from ChEMBL document CHEMBL1201862, “PubChem BioAssay data set” (2004).
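Method: 48-hour compound exposure of cells in 96-well plates, five concentrations, linear interpolation of endpoints. The concentration for 50% growth inhibition is given as GI50.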 Active and inactive are the calls of the source. No stated cut-off is given here; in the data, active = GI50 up to about 1.1 µM and inactive = higher.

Legend:
Test in all cases: inhibition of tumour cell growth, NCI panel, 48 h
SN12C = tested on: SN12C
HL-60 = tested on: HL-60
SK-MEL-2 = tested on: SK-MEL-2
CAKI-1 = tested on: CAKI-1
OVCAR-4 = tested on: OVCAR-4
MCF7 = tested on: MCF7
Malme-3M = tested on: Malme-3M
SNB-19 = tested on: SNB-19
MOLT-4 = tested on: MOLT-4
Hs-578T = tested on: Hs-578T
MDA-MB-435 = tested on: MDA-MB-435
NCI/ADR-RES = tested on: NCI/ADR-RES
RXF 393 = tested on: RXF 393
UACC-257 = tested on: UACC-257
DU-145 = tested on: DU-145
SF-268 = tested on: SF-268
SNB-75 = tested on: SNB-75
CCRF-CEM = tested on: CCRF-CEM
TK-10 = tested on: TK-10
BT-549 = tested on: BT-549

SMILES | GI50 (SN12C) | GI50 (HL-60) | GI50 (SK-MEL-2) | GI50 (CAKI-1) | GI50 (OVCAR-4) | GI50 (MCF7) | GI50 (Malme-3M) | GI50 (SNB-19) | GI50 (MOLT-4) | GI50 (Hs-578T) | GI50 (MDA-MB-435) | GI50 (NCI/ADR-RES) | GI50 (RXF 393) | GI50 (UACC-257) | GI50 (DU-145) | GI50 (SF-268) | GI50 (SNB-75) | GI50 (CCRF-CEM) | GI50 (TK-10) | GI50 (BT-549)
N=C(N)SCc1ccc(Cl)cc1Cl.O=[N+]([O-])c1c(O)c(Cl)cc(Cl)c1Cl | 11.9 µM (inactive) | 6.04 µM (inactive) | 12.7 µM (inactive) | 11 µM (inactive) | 12 µM (inactive) | 11.5 µM (inactive) | 15.6 µM (inactive) | 19.4 µM (inactive) | 7.4 µM (inactive) | 20.7 µM (inactive) | 6.22 µM (inactive) | 19.5 µM (inactive) | 12.8 µM (inactive) | 7.73 µM (inactive) | 13.5 µM (inactive) | 17 µM (inactive) | 15.1 µM (inactive) | 3.18 µM (inactive) | 6.18 µM (inactive) | 16.3 µM (inactive)
O=C(O)CC1(C(=O)O)CCCCC1 | > 100 µM (inactive) | > 100 µM (inactive) | > 100 µM (inactive) | > 100 µM (inactive) | > 100 µM (inactive) | > 100 µM (inactive) | > 100 µM (inactive) | > 100 µM (inactive) | > 100 µM (inactive) | > 100 µM (inactive) | > 100 µM (inactive) | > 100 µM (inactive) | > 100 µM (inactive) | > 100 µM (inactive) | > 100 µM (inactive) | > 100 µM (inactive) | > 100 µM (inactive) | > 100 µM (inactive) | > 100 µM (inactive) | > 100 µM (inactive)
O=C1CC(=O)NC(NNS(=O)(=O)c2ccc(Cl)cc2)=N1 | > 100 µM (inactive) | 70.8 µM (inactive) | > 100 µM (inactive) | > 100 µM (inactive) | > 100 µM (inactive) | > 100 µM (inactive) | > 100 µM (inactive) | > 100 µM (inactive) | > 100 µM (inactive) | > 100 µM (inactive) | > 100 µM (inactive) | > 100 µM (inactive) | > 100 µM (inactive) | > 100 µM (inactive) | > 100 µM (inactive) | > 100 µM (inactive) | > 100 µM (inactive) | 63.1 µM (inactive) | > 100 µM (inactive) | > 100 µM (inactive)
N#Cc1c(O)c(/C=N/c2ccc(Cl)cc2)c(=O)n2c1[nH]c1ccccc12 | > 100 µM (inactive) | > 100 µM (inactive) | > 100 µM (inactive) | > 100 µM (inactive) | > 100 µM (inactive) | > 100 µM (inactive) | > 100 µM (inactive) | > 100 µM (inactive) | > 100 µM (inactive) | > 100 µM (inactive) | > 100 µM (inactive) | > 100 µM (inactive) | > 100 µM (inactive) | > 100 µM (inactive) | > 100 µM (inactive) | > 100 µM (inactive) | > 100 µM (inactive) | > 100 µM (inactive) | > 100 µM (inactive) | > 100 µM (inactive)
Cc1cc(C)nc(NC(=S)Nc2ccc(Cl)cc2)c1 | > 100 µM (inactive) | > 100 µM (inactive) | > 100 µM (inactive) | 60.5 µM (inactive) | 18.4 µM (inactive) | > 100 µM (inactive) | 34.8 µM (inactive) | > 100 µM (inactive) | > 100 µM (inactive) | 21.5 µM (inactive) | > 100 µM (inactive) | 29.2 µM (inactive) | 36.1 µM (inactive) | > 100 µM (inactive) | > 100 µM (inactive) | 21.3 µM (inactive) | 11.9 µM (inactive) | > 100 µM (inactive) | 33.7 µM (inactive) | > 100 µM (inactive)
Oc1nc2cc(Cl)ccc2nc1/C(=N\Nc1ccccc1)C(O)c1ccc2c(c1)OCO2 (stereo not given) | > 100 µM (inactive) | > 100 µM (inactive) | > 100 µM (inactive) | > 100 µM (inactive) | > 100 µM (inactive) | > 100 µM (inactive) | > 100 µM (inactive) | > 100 µM (inactive) | > 100 µM (inactive) | > 100 µM (inactive) | > 100 µM (inactive) | > 100 µM (inactive) | > 100 µM (inactive) | > 100 µM (inactive) | > 100 µM (inactive) | > 100 µM (inactive) | > 100 µM (inactive) | > 100 µM (inactive) | > 100 µM (inactive) | > 100 µM (inactive)
O=C(NC(N1CCN(c2cc3c(cc2F)c(=O)c(C(=O)O)cn3C2CC2)CC1)(C(F)(F)F)C(F)(F)F)c1ccccc1 | 36.1 µM (inactive) | 25.4 µM (inactive) | 34.9 µM (inactive) | 22.9 µM (inactive) | 35.2 µM (inactive) | 29.8 µM (inactive) | 36.6 µM (inactive) | 33.9 µM (inactive) | 26.1 µM (inactive) | 40.9 µM (inactive) | 34.1 µM (inactive) | 46 µM (inactive) | 46.1 µM (inactive) | 26.8 µM (inactive) | 62.1 µM (inactive) | 40.9 µM (inactive) | 33.6 µM (inactive) | 24.7 µM (inactive) | 27.4 µM (inactive) | 51.2 µM (inactive)
COC1OC2COC(=O)c3cc(O)c(O)c(O)c3-c3c(cc(O)c(O)c3O)C(=O)OC2C(O)C1O (stereo not given) | 16.5 µM (inactive) | > 10 µM (inactive) | 84.5 µM (inactive) | 63.8 µM (inactive) | 31.5 µM (inactive) | 42.6 µM (inactive) | > 100 µM (inactive) | > 100 µM (inactive) | 28.6 µM (inactive) | > 100 µM (inactive) | 30.5 µM (inactive) | > 100 µM (inactive) | > 100 µM (inactive) | > 100 µM (inactive) | > 100 µM (inactive) | 64 µM (inactive) | 62.8 µM (inactive) | 37.3 µM (inactive) | > 100 µM (inactive) | > 100 µM (inactive)
O=C(O)c1ccc(NNC(=O)c2cccc3c(=O)c4ccccc4[nH]c23)cc1 | > 100 µM (inactive) | 50.8 µM (inactive) | > 100 µM (inactive) | > 100 µM (inactive) | > 100 µM (inactive) | > 100 µM (inactive) | 97.9 µM (inactive) | > 100 µM (inactive) | 78.9 µM (inactive) | > 100 µM (inactive) | > 100 µM (inactive) | > 100 µM (inactive) | > 100 µM (inactive) | > 100 µM (inactive) | > 100 µM (inactive) | > 100 µM (inactive) | > 100 µM (inactive) | 66.2 µM (inactive) | > 100 µM (inactive) | 85.7 µM (inactive)
CN(C)CCn1c(=O)c2ccc3c4c(nn3CCN(C)C)c3cc(N)ccc3n(c1=O)c24 | < 0.0199 µM (active) | 0.0279 µM (active) | < 0.0292 µM (active) | 0.0741 µM (active) | 0.0165 µM (active) | < 0.0207 µM (active) | 0.0667 µM (active) | < 0.0111 µM (active) | < 0.011 µM (active) | 0.091 µM (active) | < 0.0209 µM (active) | 0.0349 µM (active) | < 0.032 µM (active) | 0.118 µM (active) | < 0.0167 µM (active) | < 0.01 µM (active) | < 0.01 µM (active) | < 0.0126 µM (active) | 0.0513 µM (active) | 0.127 µM (active)
